# Laboratory results from PubChem BioAssay (NCI).
#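 Where inhibition never reached the appropriate level, the endpoint shown equals the highest concentration tested. Otherwise, values were interpolated linearly from a five-concentration, 48-hour dose response in 96-well plates. TGI: total growth inhibition.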
# Columns and labels:
# Test in all cases: NCI tumour cell line growth inhibition, 48 h
# SR leukemia = system: SR leukemia
# RXF 393 renal = system: RXF 393 renal
# SF-268 CNS = system: SF-268 CNS
# NCI/ADR-RES ovarian = system: NCI/ADR-RES ovarian
# SW-620 colon = system: SW-620 colon
# SK-MEL-2 melanoma = system: SK-MEL-2 melanoma
# KM12 colon = system: KM12 colon
# HS 578T breast = system: HS 578T breast
# COLO 205 colon = system: COLO 205 colon
# SK-MEL-28 melanoma = system: SK-MEL-28 melanoma
# EKVX NSCLC = system: EKVX NSCLC
# CCRF-CEM leukemia = system: CCRF-CEM leukemia
# A549 NSCLC = system: A549 NSCLC
# OVCAR-5 ovarian = system: OVCAR-5 ovarian
# SNB-75 CNS = system: SNB-75 CNS
# NCI-H226 lung = system: NCI-H226 lung
# HOP-92 NSCLC = system: HOP-92 NSCLC
# LOX IMVI melanoma = system: LOX IMVI melanoma
# 786-0 renal = system: 786-0 renal
# HCT-116 colon = system: HCT-116 colon
# BT-549 breast = system: BT-549 breast
# OVCAR-4 ovarian = system: OVCAR-4 ovarian
# A498 renal = system: A498 renal
# IGROV1 ovarian = system: IGROV1 ovarian
# PC-3 prostate = system: PC-3 prostate
# HT29 colon = system: HT29 colon
# SN12C renal = system: SN12C renal
# MCF7 breast = system: MCF7 breast
# DU-145 prostate = system: DU-145 prostate
# M14 melanoma = system: M14 melanoma
# UACC-257 melanoma = system: UACC-257 melanoma
# TK-10 renal = system: TK-10 renal
# MALME-3M melanoma = system: MALME-3M melanoma
# MDA-MB-231 breast = system: MDA-MB-231 breast
# ACHN renal = system: ACHN renal
# SF-295 CNS = system: SF-295 CNS
# UACC-62 melanoma = system: UACC-62 melanoma
# HCT-15 colon = system: HCT-15 colon
# HCC-2998 colon = system: HCC-2998 colon
# CAKI-1 renal = system: CAKI-1 renal
# SK-MEL-5 melanoma = system: SK-MEL-5 melanoma
# HOP-62 NSCLC = system: HOP-62 NSCLC
# OVCAR-8 ovarian = system: OVCAR-8 ovarian
# SNB-19 CNS = system: SNB-19 CNS
# MDA-N = system: MDA-N
# UO-31 renal = system: UO-31 renal
# NCI-H460 lung = system: NCI-H460 lung
# SF-539 CNS = system: SF-539 CNS
# MDA-MB-435 = system: MDA-MB-435
# SK-OV-3 ovarian = system: SK-OV-3 ovarian
# OVCAR-3 ovarian = system: OVCAR-3 ovarian
# HL-60(TB) leukemia = system: HL-60(TB) leukemia
# K-562 leukemia = system: K-562 leukemia
# MOLT-4 leukemia = system: MOLT-4 leukemia
# T-47D breast = system: T-47D breast
# NCI-H23 lung = system: NCI-H23 lung
# RPMI-8226 leukemia = system: RPMI-8226 leukemia
compound,measurement,setting,value
Cc1cc2c3c(c1)S(=O)(=O)c1cc(Cl)ccc1N3CCC2,TGI,SR leukemia,> 100 µM
same,TGI,RXF 393 renal,> 100 µM
same,TGI,SF-268 CNS,> 100 µM
same,TGI,NCI/ADR-RES ovarian,> 100 µM
same,TGI,SW-620 colon,> 100 µM
same,TGI,SK-MEL-2 melanoma,> 100 µM
same,TGI,KM12 colon,> 100 µM
same,TGI,HS 578T breast,> 100 µM
same,TGI,COLO 205 colon,> 100 µM
same,TGI,SK-MEL-28 melanoma,> 100 µM
same,TGI,EKVX NSCLC,> 100 µM
same,TGI,CCRF-CEM leukemia,> 100 µM
same,TGI,A549 NSCLC,> 100 µM
same,TGI,OVCAR-5 ovarian,> 100 µM
same,TGI,SNB-75 CNS,> 100 µM
same,TGI,NCI-H226 lung,> 100 µM
same,TGI,HOP-92 NSCLC,> 100 µM
same,TGI,LOX IMVI melanoma,> 100 µM
same,TGI,786-0 renal,> 100 µM
same,TGI,HCT-116 colon,> 100 µM
same,TGI,BT-549 breast,> 100 µM
same,TGI,OVCAR-4 ovarian,> 100 µM
same,TGI,A498 renal,> 100 µM
same,TGI,IGROV1 ovarian,> 100 µM
same,TGI,PC-3 prostate,> 100 µM
same,TGI,HT29 colon,> 100 µM
same,TGI,SN12C renal,> 100 µM
same,TGI,MCF7 breast,> 100 µM
same,TGI,DU-145 prostate,> 100 µM
same,TGI,M14 melanoma,> 100 µM
same,TGI,UACC-257 melanoma,> 100 µM
same,TGI,TK-10 renal,> 100 µM
same,TGI,MALME-3M melanoma,> 100 µM
same,TGI,MDA-MB-231 breast,> 100 µM
same,TGI,ACHN renal,> 100 µM
same,TGI,SF-295 CNS,> 100 µM
same,TGI,UACC-62 melanoma,> 100 µM
same,TGI,HCT-15 colon,> 100 µM
same,TGI,HCC-2998 colon,> 100 µM
same,TGI,CAKI-1 renal,> 100 µM
same,TGI,SK-MEL-5 melanoma,> 100 µM
same,TGI,HOP-62 NSCLC,> 100 µM
same,TGI,OVCAR-8 ovarian,> 100 µM
same,TGI,SNB-19 CNS,> 100 µM
same,TGI,MDA-N,> 100 µM
same,TGI,UO-31 renal,> 100 µM
same,TGI,NCI-H460 lung,> 100 µM
same,TGI,SF-539 CNS,> 100 µM
same,TGI,MDA-MB-435,> 100 µM
same,TGI,SK-OV-3 ovarian,> 100 µM
same,TGI,OVCAR-3 ovarian,> 100 µM
same,TGI,HL-60(TB) leukemia,> 100 µM
same,TGI,K-562 leukemia,> 100 µM
same,TGI,MOLT-4 leukemia,> 100 µM
C/C(=C\CCC1=CC(=O)OC1)CCC1C2C(=O)CC(C)[C@@]3(C)CC[C@]1(C)[C@@]23C (some centres undefined),TGI,SR leukemia,> 10 µM
same,TGI,RXF 393 renal,> 10 µM
same,TGI,SF-268 CNS,> 10 µM
same,TGI,SW-620 colon,> 10 µM
same,TGI,KM12 colon,> 10 µM
same,TGI,COLO 205 colon,> 10 µM
same,TGI,SK-MEL-28 melanoma,> 10 µM
same,TGI,EKVX NSCLC,> 10 µM
same,TGI,CCRF-CEM leukemia,> 10 µM
same,TGI,A549 NSCLC,> 10 µM
same,TGI,T-47D breast,> 10 µM
same,TGI,SNB-75 CNS,> 10 µM
same,TGI,LOX IMVI melanoma,> 10 µM
same,TGI,786-0 renal,> 10 µM
same,TGI,NCI-H23 lung,> 10 µM
same,TGI,IGROV1 ovarian,> 10 µM
same,TGI,PC-3 prostate,> 10 µM
same,TGI,HT29 colon,> 10 µM
same,TGI,SN12C renal,> 10 µM
same,TGI,MCF7 breast,> 10 µM
same,TGI,DU-145 prostate,> 10 µM
same,TGI,M14 melanoma,> 10 µM
same,TGI,UACC-257 melanoma,> 10 µM
same,TGI,TK-10 renal,> 10 µM
same,TGI,MALME-3M melanoma,> 10 µM
same,TGI,MDA-MB-231 breast,> 10 µM
same,TGI,SF-295 CNS,> 10 µM
same,TGI,UACC-62 melanoma,> 10 µM
same,TGI,HCT-15 colon,> 10 µM
same,TGI,HCC-2998 colon,> 10 µM
same,TGI,CAKI-1 renal,> 10 µM
same,TGI,SK-MEL-5 melanoma,> 10 µM
same,TGI,RPMI-8226 leukemia,> 10 µM
same,TGI,HOP-62 NSCLC,> 10 µM
same,TGI,OVCAR-8 ovarian,> 10 µM
same,TGI,MDA-N,> 10 µM
same,TGI,SK-OV-3 ovarian,> 10 µM
same,TGI,HL-60(TB) leukemia,> 10 µM
same,TGI,K-562 leukemia,> 10 µM
same,TGI,MOLT-4 leukemia,> 10 µM
